Laboratory results taken from PubChem BioAssay (NCI).
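GI50 is the concentration that inhibits growth by half. TGI: concentration producing complete growth inhibition.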

Legend:
Test in all cases: NCI tumour cell line growth inhibition, 384-well format
A498 renal = system: A498 renal
HS 578T breast = system: HS 578T breast
SNB-19 CNS = system: SNB-19 CNS
RXF 393 renal = system: RXF 393 renal
NCI-H23 lung = system: NCI-H23 lung
MDA-MB-435 melanoma = system: MDA-MB-435 melanoma
K-562 leukemia = system: K-562 leukemia
NCI/ADR-RES ovarian = system: NCI/ADR-RES ovarian
DU-145 prostate = system: DU-145 prostate
M14 melanoma = system: M14 melanoma
SR leukemia = system: SR leukemia
T-47D breast = system: T-47D breast
SF-295 CNS = system: SF-295 CNS
HCT-15 colon = system: HCT-15 colon
NCI-H226 lung = system: NCI-H226 lung
RPMI-8226 leukemia = system: RPMI-8226 leukemia
SW-620 colon = system: SW-620 colon
OVCAR-8 ovarian = system: OVCAR-8 ovarian
MDA-MB-231 breast = system: MDA-MB-231 breast
U251 glioblastoma = system: U251 glioblastoma
NCI-H322M lung = system: NCI-H322M lung
LOX IMVI melanoma = system: LOX IMVI melanoma
CCRF-CEM leukemia = system: CCRF-CEM leukemia
OVCAR-3 ovarian = system: OVCAR-3 ovarian
HL-60(TB) leukemia = system: HL-60(TB) leukemia
SK-MEL-28 melanoma = system: SK-MEL-28 melanoma
ACHN renal = system: ACHN renal
OVCAR-5 ovarian = system: OVCAR-5 ovarian
KM12 colon = system: KM12 colon
HOP-62 NSCLC = system: HOP-62 NSCLC

Structure (SMILES): O=C(/C=C\n1cnc(-c2cc(C(F)(F)F)cc(C(F)(F)F)c2)n1)NNc1cnccn1
- GI50 (A498 renal): 72.8 nM
- TGI (A498 renal): 1540 nM
- GI50 (HS 578T breast): 41.1 nM
- TGI (HS 578T breast): 281 nM
- GI50 (SNB-19 CNS): 451 nM
- TGI (SNB-19 CNS): 8540 nM
- GI50 (RXF 393 renal): 21.6 nM
- TGI (RXF 393 renal): 82.7 nM
- GI50 (NCI-H23 lung): 54.8 nM
- TGI (NCI-H23 lung): 889 nM
- GI50 (MDA-MB-435 melanoma): 177 nM
- TGI (MDA-MB-435 melanoma): 721 nM
- GI50 (K-562 leukemia): 41.7 nM
- TGI (K-562 leukemia): 289 nM
- GI50 (NCI/ADR-RES ovarian): 89.1 nM
- TGI (NCI/ADR-RES ovarian): 1570 nM
- GI50 (DU-145 prostate): 274 nM
- TGI (DU-145 prostate): 1220 nM
- GI50 (M14 melanoma): 353 nM
- TGI (M14 melanoma): 1670 nM
- GI50 (SR leukemia): 13.7 nM
- TGI (SR leukemia): 29.8 nM
- GI50 (T-47D breast): 165 nM
- TGI (T-47D breast): 4110 nM
- GI50 (SF-295 CNS): 86 nM
- TGI (SF-295 CNS): 1050 nM
- GI50 (HCT-15 colon): 152 nM
- TGI (HCT-15 colon): 1310 nM
- GI50 (NCI-H226 lung): 33.8 nM
- TGI (NCI-H226 lung): 858 nM
- GI50 (RPMI-8226 leukemia): 19.6 nM
- TGI (RPMI-8226 leukemia): 64.9 nM
- GI50 (SW-620 colon): 81.8 nM
- TGI (SW-620 colon): 7100 nM
- GI50 (OVCAR-8 ovarian): 70.6 nM
- TGI (OVCAR-8 ovarian): 936 nM
- GI50 (MDA-MB-231 breast): 51.7 nM
- TGI (MDA-MB-231 breast): 244 nM
- GI50 (U251 glioblastoma): 88.9 nM
- TGI (U251 glioblastoma): 816 nM
- GI50 (NCI-H322M lung): 213 nM
- TGI (NCI-H322M lung): 5260 nM
- GI50 (LOX IMVI melanoma): 144 nM
- TGI (LOX IMVI melanoma): 555 nM
- GI50 (CCRF-CEM leukemia): 91 nM
- TGI (CCRF-CEM leukemia): 390 nM
- GI50 (OVCAR-3 ovarian): 57.6 nM
- TGI (OVCAR-3 ovarian): 463 nM
- GI50 (HL-60(TB) leukemia): 41 nM
- TGI (HL-60(TB) leukemia): 185 nM
- GI50 (SK-MEL-28 melanoma): 192 nM
- TGI (SK-MEL-28 melanoma): 1380 nM
- GI50 (ACHN renal): 250 nM
- TGI (ACHN renal): 5390 nM
- GI50 (OVCAR-5 ovarian): 342 nM
- TGI (OVCAR-5 ovarian): 9930 nM
- GI50 (KM12 colon): 442 nM
- TGI (KM12 colon): 3860 nM
- GI50 (HOP-62 NSCLC): 166 nM
- TGI (HOP-62 NSCLC): 1170 nM
